How the values were obtained:
[1] = system: Canine parvovirus type 2 (CPV2); assay: Viability assay of canine fibroblast cells infected with CPV2 (trypan blue exclusion); format: cell-based; settings: 72 hours post treatment; for cell viability after infection with CPV: added 1 hour after CPV2 infection
Description: (§1) Methods: Canine fibroblast cells were cultured in Dulbecco's modified Eagle's medium (DMEM) supplemented with 5% fetal bovine serum, 2 mM L-glutamine, 0.1 mM MEM non-essential amino acids, 1 mM sodium pyruvate, 0.05 mM 2-mercaptoethanol, 10 mM HEPES, 100 units/mL penicillin, and 100 mcg/mL streptomycin, at 38° C. with 5% CO2. Canine parvovirus type 2 (CPV2) was isolated from a fecal sample collected from a naturally infected dog. The virus was propagated on canine fibroblast cells and a titer of 10^13.37 tissue culture infectious doses (TCID50)/mL was used for viability assays. For viability assays, cells were routinely passaged and seeded in 96 well plates at 5×10^4 cells/mL in 200 μL complete DMEM media and incubated overnight at 38° C. with 5% CO2. The media was then removed and cells were infected with CPV2 for 1 hour at 38° C. with 5% CO2. […] A minimum of 3 independent experiments were performed for each assay.
72 hours post treatment, cells were assayed for viability. […] Data shown are Mean±SEM, pooled from three independent experiments.

[2] = system: Canine fibroblast cells; assay: Viability of canine fibroblast cells in the absence of CPV infection (trypan blue exclusion); settings: 1 μM, 72 hours
Description: as §1
Data shown are Mean±SEM, pooled from three independent experiments.

[3] = system: Canine parvovirus (CPV); assay: Treatment of puppies naturally infected with CPV, standard veterinary protocol supplemented with oral ferric citrate solution; format: in vivo, dog; settings: for survival rate: twice daily for up to five days, monitored for 14 days
Description: Puppies presenting with symptoms of CPV infection, including vomiting, diarrhea, hematochezia, lethargy, and depression, were tested for CPV infection using IDEXX Laboratories SNAP® Parvo Test per manufacturer's protocols.

Molecule	decrease in survival compared to cells infected with CPV ([1]; 1 μM, CPV-infected cells) [%]	decrease in survival compared to the untreated cells ([1]; 1 μM, CPV-infected cells) [%]	viability of treated versus untreated cells in the absence of CPV infection [2]	cell viability after infection with CPV ([1]; 1 μM)	cell viability after infection with CPV ([1]; 10 μM)	survival rate ([3]; 0.22 mg/kg orally, 1/3) [%]	mortality of the smallest puppies (<5 lbs) ([3]; 0.22 mg/kg, lowest concentration tested)	survival rate ([3]; 1.1 mg/kg orally, 2/5) [%]	survival rate ([3]; 2.2 mg/kg (highest concentration) orally, 5/5) [%]	survival from natural infections with CPV with increasing concentrations ([3]; increasing concentrations of ferric citrate (FIG. 3))
CC(=O)N(O)CCCCCNC(=O)CCC(=O)N(O)CCCCCNC(=O)CCC(=O)N(O)CCCCCN [deferoxamine, reference compound]	23	45	no significant difference							
ferric citrate				significant increase	significant increase	33.33	not able to prevent mortality	40	100	increased survival
